Experimental data taken from patent US10246481B2, “Bile acid derivatives and methods for synthesis and use” (City of Hope, priority 2016, dated 2019).

Columns and labels:
[1] = test system: FXR target gene SHP; test: qPCR analysis of the FXR target gene SHP in HepG2 cells; type: cell-based, human; conditions: serum starved HepG2, overnight; 100 μM UDCA, 10 μM 6EUDCA; normalized with 36b4
[2] = test system: pAKT S473; test: Western blot of AKT phosphorylation in serum-starved HepG2 cells; type: cell-based, human; conditions: 10 min
Method: Cell extracts were used to separate proteins by SDS-PAGE, and Western blot analysis was performed using specific antibodies against phosphorylated AKT and phosphorylated GSK3beta. […] Extracts were analyzed by Western blot using specific antibodies against pAKT S473 (left panel) or pGSK3beta (right panel).
To further investigate the dose dependence of AKT phosphorylation, we treated HepG2 cells with increasing concentrations of 6EUDCA. Serum-starved HepG2 cell extracts were prepared after incubation with different concentrations of 6EUDCA (DMSO/0 M, 1 μM, 3 μM, 10 µM or 30 µM) for 10 min. Extracts were analyzed by Western blot using specific antibodies against pAKT S473 (left panel) or pGSK3beta (right panel).

[3] = target: T1, GST-hFXR (Homo sapiens, UniProt Q96RI1); conditions: UDCA 1000, 300 or 100 μM; 6EUDCA 100, 30 or 10 μM; 15 or 25 min
T1 sequence (Q96RI1 1-486): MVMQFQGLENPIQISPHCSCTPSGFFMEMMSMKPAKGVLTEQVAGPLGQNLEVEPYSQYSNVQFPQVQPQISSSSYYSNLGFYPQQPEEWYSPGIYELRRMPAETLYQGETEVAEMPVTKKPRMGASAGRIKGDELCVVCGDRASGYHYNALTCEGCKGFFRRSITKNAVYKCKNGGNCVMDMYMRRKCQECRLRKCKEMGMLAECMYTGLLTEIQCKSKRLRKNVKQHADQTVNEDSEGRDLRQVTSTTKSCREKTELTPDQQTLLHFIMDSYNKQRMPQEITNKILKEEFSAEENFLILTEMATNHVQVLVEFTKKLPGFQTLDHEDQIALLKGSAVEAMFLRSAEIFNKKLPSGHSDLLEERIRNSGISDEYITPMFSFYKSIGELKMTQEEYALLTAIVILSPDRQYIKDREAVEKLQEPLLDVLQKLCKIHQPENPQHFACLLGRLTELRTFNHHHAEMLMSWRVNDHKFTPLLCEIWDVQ

[4] = test system: phosphorylated AKT; test: Western blot of AKT phosphorylation in mouse primary hepatocytes from wild-type or fxr-/- mice; conditions: serum-starved mouse primary hepatocytes, 10 min

Row | SMILES | induction of the FXR target gene SHP (qPCR) [1] | dose dependence of AKT phosphorylation ([2]; HepG2, 1 μM, 3 μM, 10 μM or 30 μM) | induction of AKT phosphorylation ([2]; serum starved HepG2 cells) | binding to FXR in TR-FRET assay (reduction in fluorescence signal of DY246) [3] | phosphorylation of AKT in fxr-/- hepatocytes [4] | phosphorylation of AKT in wild-type hepatocytes [4]
1 | CC[C@H]1[C@H](O)[C@@H]2[C@H](CC[C@]3(C)[C@@H]([C@H](C)CCC(=O)O)CC[C@@H]23)[C@@]2(C)CC[C@@H](O)C[C@@H]12 [6EUDCA, 3α, 7β-Dihydroxy-6α-ethyl-5β-cholan-24-oic acid] | neither UDCA nor 6EUDCA could induce the FXR target gene SHP | dose dependent | effective in inducing AKT phosphorylation | binds FXR with higher affinity | not in fxr−/− hepatocytes | induced phosphorylation of AKT in wild-type hepatocytes
2 | C[C@H](CCC(=O)O)[C@H]1CC[C@H]2[C@@H]3[C@@H](O)C[C@@H]4C[C@H](O)CC[C@]4(C)[C@H]3CC[C@]12C [UDCA, Ursodeoxycholic acid, reference compound] |  |  |  |  | not in fxr−/− hepatocytes | induced phosphorylation of AKT in wild-type hepatocytes
